Here are results for seven molecules from US9856732B2, “Tracers” (RESTRACK AS, priority 2012, dated 2018).

The nature of data set [1]: Oil/water partition coefficient from flooding experiment on silica-packed column at residual oil saturation. It is filed as physicochemical. To be noted: 80° C., oil 2 and water 2. As for the experimental part: Structural formulas of examples of compounds from four groups of fluorinated benzyl alcohols tested are shown herein, including in FIG. 1. The compounds could be analyzed using gas chromatography with mass spectrometric detection (GC-MS) in produced water after clean-up and pre-concentration of the water samples. Detection limits of 50 ng/l (ppt) could be obtained depending on the level of interferences from the sample matrix. Several compounds from the four groups were selected and tested for thermal stability, flooding properties, and adsorption to rock materials. In addition, two pilot field tests were initiated. Some results from the laboratory tests are shown in Table 1 and in FIG. 2 to FIG. 10. Partition coefficients were measured at 80° C., oil 2 and water 2.
A still further feature of the benzyl alcohol compounds used in the various aspects of the present invention is their highly suitable partition coefficients. For example, compounds of formula i) or preferred compounds as described herein may have partition coefficients between 1.0 and 8.0. The partition coefficients should not be too high because the partitioning tracers then will be retained too much compared to the passive water tracer. Preferable values for the partition coefficients will be between 1.2 and 7, preferably between 1.3 and 5. In all cases referred to herein partition coefficients are measured at 80° C., oil 2 and water 2, unless otherwise stated.
To test the dynamic properties of the tracer candidate an experimental setup containing a residual oil saturated column was used. […] The column was packed with 70 μm silica beads. Dead crude oil was pumped through the column after which artificial formation water was pumped through the system until residual oil saturation was reached. The tracer candidate was then co-injected with tritiated water (HTO) as a pulse into the water flow. The experiments were conducted with different oil types, different water compositions and at several temperatures.

Data set [2] can be described thus: Biodegradability in seawater (OECD 306). As for the experimental part: Tracers must be stable in the harsh reservoir environment, thus their results in the seawater biodegradation component of the HOCNF scheme “OECD (306 1999) guideline for testing chemicals, biodegradation in seawater” often show less than 20% biodegradation ensuring that they automatically are placed in the red category.
(§1) The most important environmental properties were tested on several example compounds. These are biodegradability in seawater and toxicity screening for Skeletonema Costatum. The latter gives a good general indication of the total toxicity of a chemical and in combination with the biodegradability gives a strong indication of the total impact of the environment.

Another data set deals with Skeletonema Costatum. Kind of data set: Toxicity screening for Skeletonema Costatum (ISO 10253; 2006). It is filed as cell-based. The settings on record: exposure of 72 hr.
From the text: In addition to biodegradation in seawater other tests to be conducted are the toxicity test with Acardia Tonsa (ISO14669; 1999), providing a median lethal concentration (LC50) after an exposure of 48 hr, toxicity test with Skeletonema Costatum (ISO 10253; 2006), providing a median effect concentration (EC50/EL50) after an exposure of 72 hr, toxicity test with Scophthalmus Maximus (PARCOM 2006), providing the mortality of fish after 96 hr at EC50 value and bioaccumulation potential (OECD Guidelines for Testing of Chemicals, 117), providing the logarithm of n-octanol/water partition coefficient.
as §1

For the molecule `OCc1c(F)ccc(F)c1F` [2,3,6-TFBOH, 2,3,6-trifluorobenzyl alcohol], in data set [1], the “partition coefficient K” value is recorded as 1.9. For the same molecule, the “Biodegradability BOD28” value in data set [2] was determined as 2%.
The like results for `OCc1c(F)cc(F)cc1F` [2,4,6-TFBOH, 2,4,6-trifluorobenzyl alcohol] were, in that order, 2.4 and 0-3%.
In the same order, the values of `OCc1c(F)cccc1F` [2,6-DFBOH, 2,6-difluorobenzyl alcohol] are 1.5 and 0%.
In the case of `OCc1ccccc1F` [2-FBOH, 2-fluorobenzyl alcohol], the “partition coefficient K” value in data set [1] worked out at 1.5.
Same read-out and setting: for `OCc1ccc(F)c(F)c1` [3,4-DFBOH, 3,4-difluorobenzyl alcohol] the value was 2.1.
As to `OCc1cc(F)cc(F)c1` [3,5-DFBOH, 3,5-difluorobenzyl alcohol], the “partition coefficient K” value in data set [1] worked out at 2.9. Moreover, the “Biodegradability BOD28” value in data set [2] amounted to 2%.
As to `OCc1ccc(F)cc1` [4-FBOH], in the data set with Skeletonema Costatum, the “Toxicity EL50” value is listed as “Ca 10 mg/L”. Besides, in data set [2], the “Biodegradability BOD28” value stood at 3%.
